From ChEMBL document CHEMBL5537167, “Rising Star in Immunotherapy: Development and Therapeutic Potential of Small-Molecule Inhibitors Targeting Casitas B Cell Lymphoma-b (Cbl-b)” (J Med Chem, 2024) come the findings set out here.

Data set [1] has as its target T1, E3 ubiquitin-protein ligase CBL-B (Homo sapiens, UniProt Q13191). As to the kind of experiment: Inhibition of Cbl-b (unknown origin) using fluorophore-labeled probe by TR-FRET based Cb1-b displacement assay. In general terms: TR-FRET usually uses a lanthanide donor and a delayed reading to cut background.
Data set [2] addresses T1, E3 ubiquitin-protein ligase CBL-B. Put plainly: Inhibition of CBL-B (unknown origin) by FRET assay.
For data set [3] the target is unchanged. Put plainly: Inhibition of Cbl-b (unknown origin) by Cellular substrate assay.
Data set [4] is described as follows: Metabolic stability in human liver microsomes assessed as intrinsic clearance.
Data set [5] in a line: Metabolic stability in mouse liver microsomes assessed as intrinsic clearance. For orientation: Microsomes from liver hold many membrane-bound enzymes, among them those of drug oxidation.
Data set [6] concerns the target T1, E3 ubiquitin-protein ligase CBL-B.
Description: Inhibition of N-terminal biotinylated Avi-tagged Cbl-b (36 to 427 residues) (unknown origin) by SPR assay
The nature of the next data set: in vitro. To be noted: rat, plasma.
Data set [7] has as its system Panel NCI-60 (60 carcinoma cell lines). Put plainly: Anti-proliferative activity against human Panel NCI-60 (60 carcinoma cell lines).
For data set [8], the target named is T1, E3 ubiquitin-protein ligase CBL-B. As to the kind of experiment: Inhibition of CBL-B (unknown origin) by biochemical assay.
The target is the same in data set [9]. Put plainly: Inhibition of Cbl-b (unknown origin) by TR-FRET assay.

T1 sequence (Q13191 whole entry): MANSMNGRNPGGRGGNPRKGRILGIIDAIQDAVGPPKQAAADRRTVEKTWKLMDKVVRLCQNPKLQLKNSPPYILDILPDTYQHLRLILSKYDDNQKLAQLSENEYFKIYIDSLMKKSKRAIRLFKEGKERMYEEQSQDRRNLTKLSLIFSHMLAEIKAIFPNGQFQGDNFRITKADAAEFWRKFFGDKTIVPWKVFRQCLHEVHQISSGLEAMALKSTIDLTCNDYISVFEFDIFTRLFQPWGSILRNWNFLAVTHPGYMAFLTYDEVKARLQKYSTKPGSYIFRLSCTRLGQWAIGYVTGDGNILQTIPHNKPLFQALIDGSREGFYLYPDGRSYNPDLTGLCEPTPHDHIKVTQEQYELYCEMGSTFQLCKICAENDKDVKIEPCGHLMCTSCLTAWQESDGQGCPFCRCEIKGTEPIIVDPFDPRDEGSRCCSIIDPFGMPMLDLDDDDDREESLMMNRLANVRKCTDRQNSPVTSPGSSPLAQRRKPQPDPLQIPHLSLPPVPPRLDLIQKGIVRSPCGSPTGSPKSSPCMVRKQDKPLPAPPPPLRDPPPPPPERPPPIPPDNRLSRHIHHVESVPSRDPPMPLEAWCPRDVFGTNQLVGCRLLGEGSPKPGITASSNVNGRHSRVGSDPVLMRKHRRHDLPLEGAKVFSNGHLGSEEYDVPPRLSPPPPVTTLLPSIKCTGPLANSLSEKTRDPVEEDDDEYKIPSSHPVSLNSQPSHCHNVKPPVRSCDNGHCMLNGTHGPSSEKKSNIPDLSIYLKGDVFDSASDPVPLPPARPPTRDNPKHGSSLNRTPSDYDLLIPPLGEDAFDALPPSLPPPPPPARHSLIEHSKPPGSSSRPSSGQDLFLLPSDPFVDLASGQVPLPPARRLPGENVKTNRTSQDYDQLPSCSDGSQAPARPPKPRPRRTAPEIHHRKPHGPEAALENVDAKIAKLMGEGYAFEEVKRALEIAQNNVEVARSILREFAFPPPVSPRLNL

`C[C@H](Cc1nncn1C)c1cccc(NC(=O)N2CCOc3cccnc32)c1`: the IC50 (usually the midpoint of a concentration-inhibition curve) in data set [1] is < 100 nM. Consider `C[C@H](Sc1nncn1C)c1cccc(NC(=O)c2ccnc(C3CC3)n2)c1`, for which the IC50 in data set [2] was found to be 92 nM. As for `C[C@H](Cc1nncn1C)c1cccc(NC(=O)c2ccnc(C3CC3)n2)c1`, the figures for the IC50 in [3] and in [2] were 1700 nM and 88 nM, respectively. Besides, the CLint scaled (as a rule, a measure of how fast metabolising enzymes remove a compound, apart from limits set by blood flow) worked out at 30 mL/min/kg in data set [4] and 73 mL/min/kg in data set [5]. For `C[C@@H]1CN(Cc2cc3c(c(C(F)(F)F)c2)CN(c2cccc(C4(c5nncn5C)CC(F)(F)C4)c2)C3=O)CCO1`, in [6], the IC50 is ≤ 5 nM. As to `Cc1cc(C(=O)Nc2cccc([C@H](C)Cc3nncn3C)c2)nc(C2CC2)n1`, the 50% inhibitory concentration (IC50) in [3] was 780 nM; in data set [2] it was 38 nM. Moreover, in “in vitro”, the half-life (as a rule, the time in which the quantity being followed falls by half) is 163 min. Also, the intrinsic clearance (CLint scaled) in data set [5] amounted to 67 mL/min/kg. With `Cn1cnnc1CC1(c2cccc(N3Cc4c(cc(CN5CCCC(CC#N)C5)cc4C(F)(F)F)C3=O)c2)COC1` (stereo unspecified), in [6], the half-inhibitory concentration (IC50) turned out to be 1 nM. For `C[C@H]1CCCN(Cc2cc3c(c(C(F)(F)F)c2)CN(c2cccc([C@]4(Cc5nncn5C)C[C@@H](C#N)C4)c2)C3=O)C1`, the IC50 in data set [6] was < 1 nM. For the compound `CN(C)c1c2c(c3nc4ccccc4c4c3c1N=C4N1C(=O)c3c4c(nc5ccccc35)C3=C(C(=O)CCN3)C(=[N+](C)C)C41)NCCC2=O` (stereo in doubt; (+)-8), the 50% growth inhibitory concentration (GI50) (in general, the concentration at which growth is held to half of that of the control) in data set [7] was > 30000 nM. The IC50 in data set [8] was found to be 9.7 µM. Turning to `C[C@H]1CCCN(Cc2cc3c(c(C(F)(F)F)c2)CN(c2cccc([C@]4(c5nncn5C)C[C@@H](C)C4)c2)C3=O)C1`, the 50% inhibitory concentration (IC50) in [2] was ≤ 5 nM. For the compound `Cn1cnnc1CC1(c2cccc(-n3cc4c(C(F)(F)F)cc(CN5CCC6(CC6)C5)cn4c3=O)c2)COC1`, the IC50 in [9] was < 100 µM. Regarding `Cc1cc(C(=O)Nc2cccc(C3(Cc4nncn4C)COC3)c2)nc(C2CC2)n1`, in data set [3], the IC50 came out at 790 nM. Also, the half-life in “in vitro” is > 1000 min. In addition, the results for the CLint scaled in data set [4] and in data set [5] were 7 mL/min/kg and 26 mL/min/kg, respectively. In turn, `CN(C)c1c2c(c3nc4ccccc4c4c3c1N=C4N1C(=O)c3c4c(nc5ccccc35)C3=C(C(=O)CCN3)C(=[N+](C)C)C41)NCCC2=O` (stereo in doubt; (-)-8) registered an IC50 in [8] of 7.5 µM. For the compound `Cn1cnnc1[C@H](c1cccc(-n2cc3c(C(F)(F)F)cc(CN4CCC[C@@](C)(O)C4)cn3c2=O)c1)C1CCC1`, the IC50 in [9] was < 100 µM.

Turning to `CN(C)c1c2c(c3nc4ccccc4c4c3c1N=C4)NCCC2=O`, it took 180 nM to inhibit growth in data set [7] by half (GI50). In addition, the IC50 in data set [8] turned out to be 167 µM.

Take `Cc1cc(C(=O)Nc2cccc(C3(Cc4nocc4C)COC3)c2)nc(C2CC2)n1`: the IC50 in data set [6] is < 100 nM.
